PubChem BioAssay (NCI)
Several values for one entry are separate records, joined by “and”; a condition that tells them apart may be missing. Identical values can stand only once.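 Tested at 5 concentrations; 48 h exposure; 96-well plates; endpoints linearly interpolated, else capped at highest concentration. GI50 is the concentration that inhibits growth by half. Definition used: TGI = concentration required for complete inhibition of growth.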

Tests used:
Test in all cases: DTP human tumour cell line panel, 48 h
SF-268 CNS = system: SF-268 CNS
HOP-92 NSCLC = system: HOP-92 NSCLC
HCT-116 colon = system: HCT-116 colon
HCC-2998 colon = system: HCC-2998 colon
MCF7 breast = system: MCF7 breast
CAKI-1 renal = system: CAKI-1 renal
T-47D breast = system: T-47D breast
BT-549 breast = system: BT-549 breast

SMILES | GI50 (SF-268 CNS) [µM] | TGI (SF-268 CNS) [µM] | GI50 (HOP-92 NSCLC) [µM] | TGI (HOP-92 NSCLC) [µM] | GI50 (HCT-116 colon) [µM] | TGI (HCT-116 colon) [µM] | GI50 (HCC-2998 colon) [µM] | TGI (HCC-2998 colon) | GI50 (MCF7 breast) [µM] | TGI (MCF7 breast) [µM] | GI50 (CAKI-1 renal) [µM] | TGI (CAKI-1 renal) | GI50 (T-47D breast) [µM] | TGI (T-47D breast) [µM] | GI50 (BT-549 breast) [µM] | TGI (BT-549 breast) [µM]
O=C(Nc1ccc(-n2cc(-c3ccncc3)c(-c3ccc(Cl)c(O)c3)n2)cc1)c1ccc(Cl)c(Cl)c1 | > 100 | > 100 | 8.97 | > 100 | 2.89 | > 100 | 3.43 | 19.7 µM | 4.63 | > 100 | 3.67 | 21.3 µM | 8.09 | > 100 | 5.04 | > 100
Cc1cn([C@H]2CN(O)C[C@@H](CO)O2)c(=O)[nH]c1=O | – | > 100 | – | – | – | > 100 | – | > 100 µM | – | > 100 | – | > 100 µM | – | > 100 | – | > 100
CC[C@]1(O)C[C@@H]2CN(CCc3c([nH]c4ccccc34)[C@@](C(=O)OC)(c3cc4c(cc3OC)N(C)[C@H]3[C@@](O)(C(=O)OC)[C@H](OC(=O)CCCBr)[C@]5(CC)C=CCN6CC[C@]43[C@@H]65)C2)C1 | 0.197 | 17.5 | 0.0877 | 3.53 | < 0.01 | > 32.4 | 0.0132 | 1.31 µM | < 0.01 | > 100 | < 0.0206 | 2.12 µM | – | – | 0.0637 | 10.1
CCCCCCCC(=O)OC[n+]1cccc(-c2c(COC(=O)NC(C)C)c(COC(=O)NC(C)C)c3n2CCC3)c1 | – | > 100 | – | > 100 | – | > 100 | – | > 100 µM | – | > 100 | – | > 87.5 µM | – | > 100 | – | > 100
c1ccc2[nH]c(-c3cscn3)nc2c1 | – | > 100 | – | > 100 | – | > 100 | – | > 100 µM | – | > 100 | – | > 100 µM and 37.2 µM | – | > 100 | – | > 100
COc1cc([N+](=O)[O-])c(S(=O)(=O)O)cc1-[n+]1nc(C(=O)Nc2ccccc2)nn1-c1ccc([N+](=O)[O-])c(S(=O)(=O)[O-])c1 | – | > 100 | – | – | – | > 100 | – | > 100 µM | – | > 100 | – | > 100 µM | – | > 100 | – | –
COc1ccc(-c2nn(-c3cccc(Cl)c3)cc2-c2c(C#N)c(=O)n3[nH]c(-c4ccc(C)o4)nc3c2C#N)cc1 | 5.23 | > 50 | 0.463 | 3.44 | 2.53 | 22.5 | 7.43 | 45.7 µM | 1.75 | > 50 | 6.8 | > 50 µM | 2.77 | 33.8 | 4.19 | 43.5
Fc1cccc(C2ON=C(c3ccccc3)N2C23CC4CC(CC(C4)C2)C3)c1 (stereo not given) | – | > 10 | – | > 10 | – | > 10 | – | > 10 µM | – | > 10 | – | > 10 µM | – | > 10 | – | > 10
CC(=O)Nc1ccc2c(c1)[nH]c(=O)c1cc(Cl)ccc12 | – | > 100 | – | – | – | > 100 | – | > 100 µM | – | 77.7 | – | 8.4 µM | – | > 100 | – | > 100
NCC[PH+](c1ccccc1)c1ccccc1.NCC[PH+](c1ccccc1)c1ccccc1.[Cl-].[Pt+4] | > 100 | > 100 | > 100 | > 100 | 46.1 | > 100 | > 100 | > 100 µM | > 100 | > 100 | > 100 | > 100 µM | > 100 | > 100 | > 100 | > 100
COc1cc(-c2ccc[nH]2)[nH]c1/C=C1\N=C(C)C(C(=O)NC(C)C)=C1C | 4.78 | 18 | 2.22 | 6.05 | 1.52 | 4.25 | 2.87 | 13.8 µM | 2.82 | 12.3 | 2.8 | 10.9 µM | 3.02 | 10.7 | 4.62 | 18.9
COc1ccc2cc1Oc1ccc(cc1)CC1c3c(cc(OC)c4c3Oc3cc5c(cc3O4)CCNC5C2)CCN1C (stereo not given) | – | 3.84 | – | 6.76 | 1.84 | 3.32 | 1.2 | 2.53 µM and 2.5 µM | – | 3.38 | 1.67 | 5.77 µM and 3.62 µM | 1.75 | 3.53 | – | 8.01
COc1ccc(C2=NOC3=c4ccccc4=CSC3=C2c2ccccc2)cc1 | 23.5 | 79.6 | 23.6 | 83.2 | 12.8 | > 100 | > 100 | > 100 µM | 24.2 | 62.9 | 64.7 | > 100 µM | 30.3 | 73.9 | 24 | 77
CN(Cc1cnc2nc(N)nc(N)c2n1)c1c(Cl)cc(C(=O)NC(CCC(=O)O)C(=O)O)cc1Br (stereo not given) | < 0.01 | > 100 | > 100 | > 100 | < 0.01 | > 100 | < 0.01 | 0.153 µM | < 0.01 | > 100 | < 0.01 | 0.0671 µM | 0.261 | > 100 | < 0.0122 | > 100
CCCCCCC1CCCCN1C(c1ccccc1)C(O)c1ccccc1 (stereo not given) | 10.9 | 23.1 | 2.84 | 9.05 | 3.11 | 11.7 | 3.65 | 10.4 µM | 3.78 | 14.8 | 3.72 | 14.6 µM | 4.68 | 19.1 | 10.4 | 22.4
Cc1ncc([N+](=O)[O-])n1CCOc1ccc(C(=O)/C=C/c2ccc(C(F)(F)F)cc2)cc1 | 2.72 | 8.49 | – | – | 1.65 | 3.34 | 5.85 | 18.3 µM | 1.7 | 4.01 | 2 | 5.25 µM | – | – | 4.64 | 17
CSc1ccc2c(c1)N(CCCN(C)C)c1ccccc1S2 | – | 27.2 | – | 26.8 | – | 26.9 | – | – | – | 26.1 | – | 21.2 µM | – | 25.9 | – | 29.2
C#CCN(CCCOc1ccc(Cl)cc1Cl)CCCSC(=O)CCCCCN1/C(=C\C=C2/CCCC(/C=C/C3=[N+](CCCCCC(=O)[O-])c4ccccc4C3(C)C)=C2Cl)C(C)(C)c2ccccc21 | 1.84 | 6.74 | 1.57 | 3.53 | 1.63 | 3.14 | 1.78 | 3.51 µM | 1.24 | 3.53 | – | – | 0.768 | 3.21 | 1.05 | 2.34
